Data as given in ChEMBL document CHEMBL4334511, “Trivirensols: Selectively Bacteriostatic Sesquiterpene Trimers from the Australian Termite Nest-Derived Fungus Trichoderma virens CMB-TN16” (J Nat Prod, 2019).
The source made the active and inactive calls. The rule behind the calls is not given here.

How the values were obtained:
Enterococcus faecalis [1] = assay: Antibacterial activity against vancomycin-resistant Enterococcus faecalis AUS-RBWH-VRE-01 assessed as colony formation unit at 30 uM incubated for 24 hrs by time kill assay; type: functional
SW-620 = assay: Cytotoxicity against human SW620 cells assessed as reduction in cell viability upto 30 uM incubated for 48 hrs by MTT assay; type: cell-based; conditions: sw-620, 48 h
NCI-H460 = assay: Cytotoxicity against human NCI-H460 cells assessed as reduction in cell viability upto 30 uM incubated for 48 hrs by MTT assay; type: cell-based; conditions: nci-h460, 48 h
Candida albicans = assay: Antifungal activity against Candida albicans ATCC 90028 assessed as reduction in fungal growth at 0.01 to 30 uM incubated for 24 hrs by spectrophotometry based broth microdilution assay; type: functional, organism-based
Bacillus subtilis = assay: Antibacterial activity against Bacillus subtilis ATCC 6633 assessed as reduction in […] growth at 0.01 to 30 uM incubated for 24 hrs by spectrophotometry based broth microdilution assay; type: functional, organism-based
Staphylococcus aureus [2] = assay: Antibacterial activity against Staphylococcus aureus ATCC 9144 assessed as reduction in […] growth at 0.01 to 30 uM incubated for 24 hrs by spectrophotometry based broth microdilution assay; type: functional, organism-based
Streptococcus pyogenes = assay: Antibacterial activity against Streptococcus pyogenes ATCC 12344 assessed as reduction in […] growth at 0.01 to 30 uM incubated for 24 hrs by spectrophotometry based broth microdilution assay; type: functional, organism-based
Escherichia coli [3] = assay: Antibacterial activity against Escherichia coli ATCC 11775 assessed as reduction in […] growth at 0.01 to 30 uM incubated for 24 hrs by spectrophotometry based broth microdilution assay; type: functional, organism-based
Staphylococcus aureus [4] = assay: Antibacterial activity against methicillin-resistant Staphylococcus aureus AUS-RBWH-MRSA-02 assessed as reduction in […] growth at 0.01 to 30 uM incubated for 24 hrs by spectrophotometry based broth microdilution assay; type: functional, organism-based
Escherichia coli [5] = assay: Antibacterial activity against Escherichia coli KUW-kw-AmH-11 assessed as reduction in […] growth at 0.01 to 30 uM incubated for 24 hrs by spectrophotometry based broth microdilution assay; type: functional, organism-based
Pseudomonas aeruginosa [6] = assay: Antibacterial activity against IMP producing Pseudomonas aeruginosa UAE-DBI-ZMH-91 assessed as reduction in […] growth at 0.01 to 30 uM incubated for 24 hrs by spectrophotometry based broth microdilution assay; type: functional, organism-based
Pseudomonas aeruginosa [7] = assay: Antibacterial activity against VIM producing Pseudomonas aeruginosa SA-EP-KFUH-40 assessed as reduction in […] growth at 0.01 to 30 uM incubated for 24 hrs by spectrophotometry based broth microdilution assay; type: functional, organism-based
Klebsiella pneumoniae [8] = assay: Antibacterial activity against NDM-producing Klebsiella pneumoniae SA-Rd-KAMC-037 assessed as reduction in […] growth at 0.01 to 30 uM incubated for 24 hrs by spectrophotometry based broth microdilution assay; type: functional, organism-based
Klebsiella pneumoniae [9] = assay: Antibacterial activity against OXA-48-producing Klebsiella pneumoniae SA-Rd-KAMC-014 assessed as reduction in […] growth at 0.01 to 30 uM incubated for 24 hrs by spectrophotometry based broth microdilution assay; type: functional, organism-based
Acinetobacter baumannii = assay: Antibacterial activity against OXA-23-producing Acinetobacter baumannii SA-Rd-KAMC-083 assessed as reduction in […] growth at 0.01 to 30 uM incubated for 24 hrs by spectrophotometry based broth microdilution assay; type: functional, organism-based
Enterococcus faecalis [10] = assay: Antibacterial activity against vancomycin-resistant Enterococcus faecalis AUS-RBWH-VRE-01 assessed as reduction in […] growth incubated for 24 hrs by spectrophotometry based broth microdilution assay; type: functional, organism-based; conditions: Enterococcus faecalis, AUS-RBWH-VRE-01, 24 h; read-out: IC50
Enterococcus faecalis [11] = assay: Antibacterial activity against vancomycin-resistant Enterococcus faecalis AUS-RBWH-VRE-01 assessed as fold reduction in growth by measuring colony formation unit at 30 uM incubated for 24 hrs by time kill assay; type: functional
[12] = Prodrug conversion in vancomycin-resistant Enterococcus faecalis AUS-RBWH-VRE-01 assessed as hydrolysis product butenolide formation at 30 uM incubated for 24 hrs by UHPLC-DAD-ESIMS analysis; type: ADME
[13] = Prodrug conversion in vancomycin-resistant Enterococcus faecalis AUS-RBWH-VRE-01 assessed as hydrolysis product butenolide formation at 30 uM incubated for 3-6 hrs by UHPLC-DAD-ESIMS analysis; type: ADME
[14] = Prodrug conversion in vancomycin-resistant Enterococcus faecalis AUS-RBWH-VRE-01 assessed as hydrolysis product trivirensol B formation at 30 uM incubated for 24 hrs by UHPLC-DAD-ESIMS analysis; type: ADME
[15] = Prodrug conversion in vancomycin-resistant Enterococcus faecalis AUS-RBWH-VRE-01 assessed as hydrolysis product divirensol B formation at 30 uM incubated for 24 hrs by UHPLC-DAD-ESIMS analysis; type: ADME

Compound	Activity (SW-620)	Activity (NCI-H460)	Activity (Candida albicans)	Activity (Bacillus subtilis)	Activity (Staphylococcus aureus [2])	Activity (Streptococcus pyogenes)	Activity (Escherichia coli [3])	Activity (Staphylococcus aureus [4])	Activity (Escherichia coli [5])	Activity (Pseudomonas aeruginosa [6])	Activity (Pseudomonas aeruginosa [7])	Activity (Klebsiella pneumoniae [8])	Activity (Klebsiella pneumoniae [9])	Activity (Acinetobacter baumannii)	IC50 (Enterococcus faecalis [10])	fold change (FC) (Enterococcus faecalis [11])	Drug metabolism [12]	other results
CCCCCCCCCC(=O)N[C@@H](Cc1c[nH]c2ccccc12)C(=O)N[C@H](CC(N)=O)C(=O)N[C@@H](CC(=O)O)C(=O)N[C@@H]1C(=O)NCC(=O)N[C@@H](CCCN)C(=O)N[C@@H](CC(=O)O)C(=O)N[C@H](C)C(=O)N[C@@H](CC(=O)O)C(=O)NCC(=O)N[C@H](CO)C(=O)N[C@@H]([C@H](C)CC(=O)O)C(=O)N[C@@H](CC(=O)c2ccccc2N)C(=O)O[C@@H]1C	–	–	–	–	–	–	–	–	–	–	–	–	–	–	–	–	–	Activity (Enterococcus faecalis [1]): 50 CFU/ml
CC(C)[C@H]1CC[C@@](O)(COC(=O)/C(=C/[C@@H]2[C@@H](C(C)C)CC[C@@]3(O)COC(=O)[C@@H]23)CO)[C@@H](C(=O)O)[C@@H]1/C=C(\CO)C(=O)O[C@@]12CC[C@H](C(C)C)[C@@H](/C=C(\CO)C(=O)O)[C@@H]1C(=O)OC2	Non-Toxic	Non-Toxic	inactive	inactive	inactive	inactive	inactive	inactive	inactive	inactive	inactive	inactive	inactive	inactive	10 µM	1000	Metabolite_Notdetected	Drug metabolism [13]: Metabolite_Detected
CC(C)[C@H]1CC[C@@](O)(COC(=O)C2=C[C@@H]3[C@@H](C(C)C)CC[C@@](O)(COC(=O)/C(=C/[C@@H]4[C@@H](C(C)C)CC[C@@]5(O)COC(=O)[C@@H]45)CO)[C@H]3C(=O)OC2)[C@H]2C(=O)OCC(C(=O)O)=C[C@H]12	Non-Toxic	Non-Toxic	inactive	inactive	inactive	inactive	inactive	inactive	inactive	inactive	inactive	inactive	inactive	inactive	8 µM	10000	Metabolite_Notdetected	Drug metabolism [14]: Metabolite_Detected
CC(C)[C@H]1CC[C@@](O)(COC(=O)/C(=C/[C@@H]2[C@@H](C(C)C)CC[C@@]3(O)COC(=O)[C@@H]23)CO)[C@H]2C(=O)OCC(C(=O)O)=C[C@H]12	Non-Toxic	Non-Toxic	inactive	inactive	inactive	inactive	inactive	inactive	inactive	inactive	inactive	inactive	inactive	inactive	–	–	Metabolite_Notdetected	Activity (Enterococcus faecalis [11]): Active; Drug metabolism [15]: Metabolite_Detected
